What was measured:
[1] = test system: pale smartweed (Po); assay: Test Example 9: crop plant selectivity by upland field foliage treatment (wheat), herbicidal effects; format: in vivo; parameters: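 grade of growth control; 5 = at least 90%; 4 = 70 to 90%; 3 = 50 to 70%; 2 = 30 to 50%; 1 = 10 to 30%; 0 = under 10%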; conditions: dose 1.6 g ai/10a, 14th day after treatment
Outline: (§1)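 Wheat and broadleaf weeds were sown together in sand-filled pots and grown for 2 weeks in a greenhouse before foliar treatment. Herbicidal effect on weeds and phytotoxicity to wheat were scored visually against set grading standards on day 14 after treatment, with plants kept in the greenhouse.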

[2] = test system: China jute (Ab); assay: as above; format: in vivo; parameters: scale not given here; conditions: dose 1.6 g ai/10a, 14th day after treatment
Outline: as §1

[3] = test system: slender amaranth (Am); assay: as above; format: in vivo; parameters: scale not given here; conditions: dose 1.6 g ai/10a, 14th day after treatment
Outline: as §1

[4] = test system: common lambsquarters (Ch); assay: as above; format: in vivo; parameters: scale not given here; conditions: dose 1.6 g ai/10a, 14th day after treatment
Outline: as §1

[5] = test system: China jute (Ab); assay: Test Example 6: crop plant selectivity by upland field soil treatment (soybean), herbicidal effects; format: in vivo; parameters: scale not given here; conditions: 21st day after application
Outline: (§2)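 Soybean and weeds sown in sand-filled pots and covered with soil, then treated by soil application. Plants grown in a greenhouse, with herbicidal effect and crop phytotoxicity scored on day 21 after application against a fixed rating scale.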

[6] = test system: common lambsquarters (Ch); assay: as above; format: in vivo; parameters: scale not given here; conditions: 21st day after application
Outline: as §2

[7] = test system: corn (Ze); assay: Test Example 11: crop plant selectivity by upland field foliage treatment (corn), phytotoxicity
Outline: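 Corn with pale smartweed, slender amaranth, common lambsquarters and China jute sown in sand-filled pots and grown 2 weeks in a greenhouse before foliage treatment. Herbicidal effect and crop phytotoxicity scored on day 14 after treatment against a rating standard.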

[8] = test system: monochoria (Mo); assay: Test Example 1: herbicidal effects by paddy field soil treatment; format: in vivo; conditions: 100 g of the active ingredient per 10 ares, 21st day after the application, index 0-5 of Table 47;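 further: grade of growth control; 5 = at least 90%; 4 = 70 to 90%; 3 = 50 to 70%; 2 = 30 to 50%; 1 = 10 to 30%; 0 = under 10%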
Outline: (§3)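 Scoring of herbicidal effect came 21 days after application of 100 g active ingredient per 10 ares to flooded (3 cm) paddy-soil pots sown with barnyardgrass, monochoria and bulrush, kept in a greenhouse.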

[9] = test system: bulrush (Sc); assay: as above; format: in vivo; conditions: 100 g of the active ingredient per 10 ares, 21st day after the application, index 0-5 of Table 47;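 further: grade of growth control; 5 = at least 90%; 4 = 70 to 90%; 3 = 50 to 70%; 2 = 30 to 50%; 1 = 10 to 30%; 0 = under 10%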
Outline: as §3

[10] = test system: barnyardgrass (Ec); assay: as above; format: in vivo; conditions: 100 g of the active ingredient per 10 ares, 21st day after the application, index 0-5 of Table 47;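 further: grade of growth control; 5 = at least 90%; 4 = 70 to 90%; 3 = 50 to 70%; 2 = 30 to 50%; 1 = 10 to 30%; 0 = under 10%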
Outline: as §3

[11] = test system: slender amaranth (Am); assay: Test Example 7: crop plant selectivity by upland field soil treatment (corn), herbicidal effects; format: in vivo; parameters: scale not given here; conditions: 21st day after application
Outline: (§4)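 Values are ratings of herbicidal effect and phytotoxicity on a standard scale, taken 21 days after application. Test species were sown together with corn in sand-filled pots, covered with soil, and grown in a greenhouse.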

[12] = test system: common lambsquarters (Ch); assay: as above; format: in vivo; parameters: scale not given here; conditions: 21st day after application
Outline: as §4

[13] = test system: soybean (Gl); assay: Test Example 6: crop plant selectivity by upland field soil treatment (soybean), phytotoxicity; format: in vivo; parameters: scale not given here; conditions: 21st day after application
Outline: as §2

[14] = upland field foliage treatment, dose 1.6 g ai/10a, 14th day after treatment

Row | SMILES | Herbicidal effects Po [1] | Herbicidal effects Ab [2] | Herbicidal effects Am [3] | Herbicidal effects Ch [4] | Herbicidal effects Ab ([5]; dose 1.6 g ai/10a) | Herbicidal effects Ch ([6]; dose 1.6 g ai/10a) | Phytotoxicity Ze [7, 14] | Herbicidal effects Mo [8] | Herbicidal effects Sc [9] | Herbicidal effects Ec [10] | Herbicidal effects Am ([11]; dose 1.6 g ai/10a) | Herbicidal effects Am ([11]; dose 6.3 g ai/10a) | Herbicidal effects Ch ([12]; dose 1.6 g ai/10a) | Herbicidal effects Ch ([12]; dose 6.3 g ai/10a) | Phytotoxicity Gl ([13]; dose 1.6 g ai/10a) | Herbicidal effects Ab ([5]; dose 6.3 g ai/10a) | Herbicidal effects Ch ([6]; dose 6.3 g ai/10a) | Phytotoxicity Gl ([13]; dose 6.3 g ai/10a) | Phytotoxicity Ze ([7]; corn, foliage treatment, dose 1.6 g ai/10a, evaluated on 14th day after treatment, index per Table 47) | Phytotoxicity Ze ([7]; upland field foliage treatment, dose 0.1 g ai/10a, 14th day after treatment)
1 | C=CCOc1cc(-c2ccc(C(F)(F)F)n(C)c2=O)c(F)cc1Cl [1-16] | 5 | 5 | 5 | 5 | 5 | 5 | 2 | 5 | 5 | 5 | 5 | 5 | 5 | 5 | 1 | – | – | – | – | –
2 | C#CCOc1cc(-c2ccc(C(F)(F)F)n(C)c2=O)c(F)cc1Cl [1-18] | – | – | – | – | 5 | 5 | 2 | 5 | 5 | 5 | 5 | 5 | 5 | 5 | 1 | – | – | – | – | –
3 | Cn1c(C(F)(F)F)ccc(-c2cc(OCC#N)c(Cl)cc2F)c1=O [1-25] | 5 | 5 | 5 | 5 | – | – | 2 | 5 | 5 | 5 | – | 5 | – | 5 | – | 5 | 5 | 2 | – | –
4 | C#CCOc1cc(-c2ccc(C(F)(F)F)n(C)c2=O)c(Cl)cc1Cl [1-30] | 5 | 5 | 5 | 5 | 5 | 5 | 2 | 5 | 5 | 5 | 5 | 5 | 5 | 5 | 1 | – | – | – | – | –
5 | CCOC(=O)c1cc(-c2ccc(C(F)(F)F)n(C)c2=O)c(F)cc1Cl [1-65] | 5 | 5 | 5 | 5 | 5 | 5 | 2 | 5 | 5 | 5 | 5 | 5 | 5 | 5 | 1 | 5 | 5 | 1 | – | –
6 | Cn1c(C(F)(F)F)ccc(-c2cc(OCCCl)c(Cl)cc2F)c1=O [1-171] | 5 | 5 | 5 | 5 | – | – | 1 | 5 | 5 | 5 | – | 5 | – | 5 | – | 5 | 5 | 1 | – | –
7 | C#CCOc1cc(-c2ccc(C(F)(F)F)n(N)c2=O)c(F)cc1Cl [1-178] | 5 | 5 | 5 | 5 | – | – | 2 | 5 | 5 | 5 | 5 | – | 5 | – | – | – | – | – | – | –
8 | COc1cc(-c2ccc(C(F)(F)F)n(N)c2=O)c(F)cc1Cl [1-179] | 5 | 5 | 5 | 5 | – | – | 1 | 5 | 5 | 5 | – | 5 | – | 5 | – | – | – | – | – | –
9 | CCOCOc1cc(-c2ccc(C(F)(F)F)n(C)c2=O)c(F)cc1Cl [1-181] | 5 | 5 | 5 | 5 | – | – | 2 | 5 | 5 | 5 | – | – | – | – | – | 5 | 5 | 1 | – | –
10 | C#CC(C)Oc1cc(Cl)cc(F)c1-c1ccc(C(F)(F)F)n(C)c1=O (stereo not shown) [1′-5] | 5 | 5 | 5 | 5 | 5 | 5 | 1 | 5 | 5 | 5 | 5 | 5 | 5 | 5 | 1 | 5 | 5 | 2 | – | –
11 | C#CCN1C(=O)COc2cc(F)c(-c3cn(C)c(C(F)(F)F)cc3=O)cc21 [Compound 7-1] | 5 | 5 | 5 | 5 | – | – | – | 5 | 5 | 5 | – | – | – | – | – | 5 | 5 | 1 | 2 | –
12 | CON=Cc1cc(-c2ccc(C(F)(F)F)n(C)c2=O)c(F)cc1Cl [Compound No. 1-72, 5-(1-methyl-6-trifluoromethyl-2(1H)-pyridon-3-yl)-2-chloro-4-fluorobenzaldehydeoxime-O-methyl ether] | – | – | – | – | 5 | 5 | 2 | 5 | 5 | 5 | 5 | – | 5 | – | 1 | 5 | 5 | 2 | – | –
13 | C#CCN1C(=O)COc2cc(F)c(-c3ccc(C(F)(F)F)n(C)c3=O)cc21 [Compound No. 2-1, 3-[7-fluoro-2,3-dihydro-4-(2-propynyl)-1,4-benzoxazin-3-on-6-yl]-1-methyl-6-trifluoromethyl-2(1H)-pyridone] | – | – | – | – | 5 | 5 | – | 5 | 5 | 5 | – | – | – | – | 0 | 5 | 5 | 1 | – | 0
14 | COCc1cc2c(-c3ccc(C(F)(F)F)n(C)c3=O)c(F)cc(Cl)c2o1 [Compound No. 4-4, 3-(7-chloro-5-fluoro-2-methoxymethylbenzofuran-4-yl)-1-methyl-6-trifluoromethyl-2-(1H)-pyridone] | – | – | – | – | – | – | 2 | 5 | 5 | 5 | 5 | 5 | 5 | 5 | – | 5 | 5 | 2 | – | –
